ChEMBL document CHEMBL3351643, “A potent cyclic peptide targeting SPSB2 protein as a potential anti-infective agent” (J Med Chem, 2014)
Blank lines part the entries; values can stand above or below the compound they belong to. Activity calls are given as the source filed them. The rule behind the calls is not given here. Where a SMILES comes first, the peptide text is derived from it. Bridges are numbered along the chain shown (N, C = ends).

What was measured:
[1] = target: T1, SPRY domain-containing SOCS box protein 2 (Homo sapiens, UniProt Q99619); assay: Binding affinity to GST-tagged SPSB2 (unknown origin) expressed in Escherichia coli BL21 (DE3) by SPR assay
T1 sequence (Q99619 whole entry): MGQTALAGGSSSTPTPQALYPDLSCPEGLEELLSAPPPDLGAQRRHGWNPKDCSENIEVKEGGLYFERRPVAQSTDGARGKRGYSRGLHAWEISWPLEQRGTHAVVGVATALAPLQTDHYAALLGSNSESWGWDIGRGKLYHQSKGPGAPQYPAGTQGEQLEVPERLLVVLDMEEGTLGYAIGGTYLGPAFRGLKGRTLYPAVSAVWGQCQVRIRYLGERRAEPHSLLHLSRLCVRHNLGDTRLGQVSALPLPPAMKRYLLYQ

[2] = Stability of the compound in 1:1 ratio of DTT:H2O2 at 0.5 mg/ml after 1 hr by redox stability/RP-HPLC assay; assay type: physicochemical; details: 1:1 DTT:H2O2; read-out: Stability
[3] = Stability of the compound assessed as pepsin (unknown origin)-mediated drug degradation at 200:1 peptide to enzyme ratio after 24 to 96 hrs by RP-HPLC analysis; assay type: ADME; details: human
[4] = Stability of the compound assessed as alpha-chymitrypsin (unknown origin)-mediated drug degradation at 200:1 peptide to enzyme ratio after 24 to 96 hrs by RP-HPLC analysis; assay type: ADME; details: human
[5] = Stability of the compound assessed as trypsin (unknown origin)-mediated drug degradation at 200:1 peptide to enzyme ratio after 24 to 96 hrs by RP-HPLC analysis; assay type: ADME; details: human
[6] = target: T2, SPRY domain-containing SOCS box protein 2 (Mus musculus) (UniProt O88838); assay: Displacement of full-length of iNOS from SPSB2 in LPS/IFNgamma-stimulated mouse BMDM cell lysate at 10 uM after 2 hrs by Western blotting analysis; assay type: cell-free
T2 sequence (whole entry): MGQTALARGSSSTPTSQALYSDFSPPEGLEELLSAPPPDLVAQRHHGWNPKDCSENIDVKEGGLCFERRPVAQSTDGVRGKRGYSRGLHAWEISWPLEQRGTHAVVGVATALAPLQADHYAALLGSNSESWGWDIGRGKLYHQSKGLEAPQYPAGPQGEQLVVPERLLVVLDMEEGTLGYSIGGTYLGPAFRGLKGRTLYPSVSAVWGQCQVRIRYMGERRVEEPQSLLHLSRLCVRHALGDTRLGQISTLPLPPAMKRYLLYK

[7] = Stability of the compound in 1 mM DTT at 0.5 mg/ml after 15 mins by redox stability/RP-HPLC assay; assay type: physicochemical; details: 0.25 h
[8] = Stability of the compound in 1:10 ratio of DTT:H2O2 at 0.5 mg/ml after 1 hr by redox stability/RP-HPLC assay; assay type: physicochemical
[9] = Stability in human plasma assessed as compound remaining at 50 uM after 24 hrs by RP-HPLC analysis; assay type: ADME, cell-free; details: read-out: Stability

Kd [1]: 35.1 nM
remaining at 1 h, 0.5 mg/ml [2]: 55%
Stability [3]: Stable
Stability [4]: Stable
Stability [5]: Stable
inhibition [6]: Active
Stability [7]: Unstable
Stability [8]: Stable
Compound: CC[C@H](C)[C@H](NC(=O)[C@H](CC(=O)O)NC(=O)[C@@H](NC(=O)[C@H](CS)NC(C)=O)C(C)C)C(=O)N[C@@H](CC(N)=O)C(=O)N[C@@H](CC(N)=O)C(=O)N[C@@H](CC(N)=O)C(=O)N[C@@H](CS)C(N)=O (Ac-CVDINNNC-NH2)

Kd [1]: 4.4 nM
Compound: CC[C@H](C)[C@@H]1NC(=O)[C@H](CC(=O)O)NC(=O)[C@H](C(C)C)NC(=O)[C@@H](NC(C)=O)CSSC[C@@H](C(N)=O)NC(=O)[C@H](CC(N)=O)NC(=O)[C@H](CC(N)=O)NC(=O)[C@H](CC(N)=O)NC1=O (Ac-CVDINNNC-NH2; disulfide 1-8)

Kd [1]: 318 nM
Compound: Ac-DINNN-NH2

Stability [3]: Unstable
remaining at 24 h, 50 µM [9]: 83%
Compound: Ac-KEEKDINNNVKKT-NH2
